Source: US20130244257A1, “INTEGRATED MICROFLUIDIC RADIOASSAY AND IMAGING PLATFORM FOR SMALL SAMPLE ANALYSIS” (THE REGENTS OF THE UNIVERSITY OF CALIFORNIA, priority 2010, published 2013)

Tested on: BCR-ABL
Experiment: effect of the buffer surfactant on BCR-ABL kinase activity in the in vitro kinase radio assay
Format: biochemical
Settings: 0.1% in all buffers
Method: Off-Chip And On-Chip In Vitro Kinase Radio Assays were performed for comparison. In vitro kinase assays were performed using established protocols for bead-based immunoaffinity capture of a specific kinase followed by kinase reactions in the presence of a kinase-specific peptide substrate and ^32P labeled ATP. The microfluidic on-chip assay was developed using reagents that were compatible and efficient in the context of microfluidic channels and valves. For the microfluidic assay, 0.1% n-dodecyl-beta-D-maltoside (DDM) was added to all buffers to prevent bead clumping (indicated by /DDM in the buffer name). […] For BCR-ABL kinase immunocapture, the off-chip assay used agarose protein NG beads (40-160 μm; Pierce, Rockford, Ill.) and the on-chip assay used smaller and more sturdy Protein G polystyrene beads (6.7 μm; Spherotech Inc., Lake Forest, Calif.). The large average size and fragility of the agarose beads precluded their use on-chip, and the small size of the polystyrene beads made them impractical for the pipeting-based off-chip assay. Both bead types were coated with anti-c-ABL antibody (OP20, EMD Chemicals).

- effect on BCR-ABL kinase activity: no detectable effect
Compound: CCCCCCCCCCCCO[C@@H]1O[C@H](CO)[C@@H](O[C@H]2O[C@H](CO)[C@@H](O)[C@H](O)[C@H]2O)[C@H](O)[C@H]1O [DDM, n-dodecyl-beta-D-maltoside]
